Measurements reported in patent publication US7943774B2 (priority 2008, dated 2011).

Tests used:
[1] = log P (pH2.3); assay type: physicochemical; details: reversed-phase HPLC column (C18)
[2] = system: Phytophthora infestans; experiment: whole plant or invertebrate; assay type: in vivo; details: in Solanum lycopersicum, 168 h, read-out: efficacy
[3] = system: Plasmopara viticola; experiment: Plasmopara test (grapevine)/protective; assay type: in vivo; details: 144 h, active compound concentration of 100 ppm, young grapevine plants sprayed, then inoculated, evaluation 6 days after inoculation, 0% = control, 100% = no infection, read-out: efficacy
Description: Plasmopara Test (Grapevine)/Protective
After the spray coating has dried on, the plants are inoculated with an aqueous spore suspension of Plasmopara viticola and then remain in an incubation cabin at about 20° C. and 100% relative atmospheric humidity for 1 day. The plants are then placed in a greenhouse at about 21° C. and an atmospheric humidity of about 90% for 4 days. The plants are then moistened and placed in an incubation cabin for 1 day.
Evaluation is carried out 6 days after the inoculation.

[4] = method [b]: LC-MS, acidic range, pH 2.7, 0.1% aqueous formic acid and acetonitrile

Which chromatographic logP [1, 4] does the source give for `Cc1cc(C(F)(F)F)nn1CC(=O)N1CCC(c2nc(C#CCc3ccccc3)cs2)CC1` [Example I-52, 2-[5-Methyl-3-(trifluoromethyl)-1H-pyrazol-1-yl]-1-{4-[4-(3-phenylprop-1-yn-1-yl)-1,3-thiazol-2-yl]piperidin-1-yl}ethanone] here?
The chromatographic logP was 3.88.

What about the pest or weed control at 500 ppm [2] of the same compound?
Its pest or weed control at 500 ppm is ≥ 70%.

For `Cc1cc(C(F)(F)F)nn1CC(=O)N1CCC(c2nc(CCc3ccccc3)cs2)CC1` [Example I-53, 2-[5-Methyl-3-(trifluoromethyl)-1H-pyrazol-1-yl]-1-{4-[4-(2-phenylethyl)-1,3-thiazol-2-yl]piperidin-1-yl}ethanone], which pest or weed control at 100 ppm [3] is on record?
Its pest or weed control at 100 ppm is ≥ 70%.

What about the chromatographic logP ([1]; method [a]: HPLC, acidic range, pH 2.3, 0.1% aqueous phosphoric acid and acetonitrile) of the same compound?
The chromatographic logP was 3.79.

What about the pest or weed control at 500 ppm [2] of the same compound?
The pest or weed control at 500 ppm was ≥ 70%.

With `Cc1cc(C(F)(F)F)nn1CC(=O)N1CCC(c2nc(CCc3cccc4ccccc34)cs2)CC1` [Example I-81, 2-[5-Methyl-3-(trifluoromethyl)-1H-pyrazol-1-yl]-1-(4-{4-[2-(naphthalen-1-yl)ethyl]-1,3-thiazol-2-yl}piperidin-1-yl)ethanone] as the compound, how does the pest or weed control at 100 ppm [3] read?
The pest or weed control at 100 ppm was ≥ 70%.

And the chromatographic logP [1, 4]?
Its chromatographic logP is 4.37.

What about the pest or weed control at 500 ppm [2] of the same compound?
The pest or weed control at 500 ppm was ≥ 70%.

Which results are given for `Cc1cc(C(F)(F)F)nn1CC(=O)N1CCC(c2nc(/C=C/c3cccc4ccccc34)cs2)CC1` [Example I-27, 2-[5-Methyl-3-(trifluoromethyl)-1H-pyrazol-1-yl]-1-(4-{4-[(E)-2-(naphthalen-1-yl)ethenyl]-1,3-thiazol-2-yl}piperidin-1-yl)ethanone]?
chromatographic logP [1, 4]: 4.63; pest or weed control at 500 ppm [2]: ≥ 70%

With `Cc1cc(C(F)(F)F)nn1CC(=O)N1CCC(c2nc(/C=C\CC(C)c3ccccc3)cs2)CC1` (stereo not drawn) [Example I-3, 2-[5-Methyl-3-(trifluoromethyl)-1H-pyrazol-1-yl]-1-(4-{4-[(1Z)-4-phenylpent-1-en-1-yl]-1,3-thiazol-2-yl}piperidin-1-yl)ethanone] as the compound, how does the chromatographic logP [1, 4] read?
The chromatographic logP was 4.84.

And the pest or weed control at 500 ppm [2]?
The pest or weed control at 500 ppm was ≥ 70%.

What does the source list for `Cc1cc(C(F)(F)F)nn1CC(=O)N1CCC(c2nc(C#C[Si](C)(C)C)cs2)CC1` [Example I-98, 2-[5-Methyl-3-(trifluoromethyl)-1H-pyrazol-1-yl]-1-(4-{4-[(trimethylsilyl)ethynyl]-1,3-thiazol-2-yl}piperidin-1-yl)ethanone]?
pest or weed control at 100 ppm [3]: ≥ 70%; chromatographic logP [1, 4]: 4.28; pest or weed control at 500 ppm [2]: ≥ 70%

With `Cc1cc(C(F)(F)F)nn1CC(=O)N1CCC(c2nc(C#Cc3cccnc3)cs2)CC1` [Example I-51, 2-[5-Methyl-3-(trifluoromethyl)-1H-pyrazol-1-yl]-1-{4-[4-(pyridin-3-ylethynyl)-1,3-thiazol-2-yl]piperidin-1-yl}ethanone] as the compound, how does the pest or weed control at 100 ppm [3] read?
Its pest or weed control at 100 ppm is ≥ 70%.

What about the chromatographic logP [1, 4] of the same compound?
The chromatographic logP was 2.68.

What about the pest or weed control at 500 ppm [2] of the same compound?
Its pest or weed control at 500 ppm is ≥ 70%.

Which results are given for `Cc1cc(C(F)(F)F)nn1CC(=O)N1CCC(c2nc(/C=C\c3cccc4ccccc34)cs2)CC1` [Example I-2, 2-[5-Methyl-3-(trifluoromethyl)-1H-pyrazol-1-yl]-1-(4-{4-[(Z)-2-(naphthalen-1-yl)ethenyl]-1,3-thiazol-2-yl}piperidin-1-yl)ethanone]?
chromatographic logP [1, 4]: 4.52; pest or weed control at 500 ppm [2]: ≥ 70%

What does the source list for `COc1ccc(C#Cc2csc(C3CCN(C(=O)Cn4nc(C(F)(F)F)cc4C)CC3)n2)cc1` [Example I-100, 1-(4-{4-[(4-Methoxyphenyl)ethynyl]-1,3-thiazol-2-yl}piperidin-1-yl)-2-[5-methyl-3-(trifluoromethyl)-1H-pyrazol-1-yl]ethanone]?
pest or weed control at 100 ppm [3]: ≥ 70%; chromatographic logP [1, 4]: 3.79; pest or weed control at 500 ppm [2]: ≥ 70%

What does the source list for `Cc1cc(C(F)(F)F)nn1CC(=O)N1CCC(c2nc(CCCC(C)c3ccccc3)cs2)CC1` (stereo not drawn) [Example I-80, 2-[5-Methyl-3-(trifluoromethyl)-1H-pyrazol-1-yl]-1-{4-[4-(4-phenylpentyl)-1,3-thiazol-2-yl]piperidin-1-yl}ethanone]?
pest or weed control at 100 ppm [3]: ≥ 70%; chromatographic logP [1, 4]: 4.77; pest or weed control at 500 ppm [2]: ≥ 70%

Which pest or weed control at 100 ppm [3] does the source give for `Cc1cc(C(F)(F)F)nn1CC(=O)N1CCC(c2nc(C#Cc3cccc4ccccc34)cs2)CC1` [Example I-50, 2-[5-Methyl-3-(trifluoromethyl)-1H-pyrazol-1-yl]-1-{4-[4-(naphthalen-1-ylethynyl)-1,3-thiazol-2-yl]piperidin-1-yl}ethanone] here?
The pest or weed control at 100 ppm was ≥ 70%.

What about the chromatographic logP [1, 4] of the same compound?
Its chromatographic logP is 4.5.

And the chromatographic logP ([1]; method [c]: LC-MS, neutral range, pH 7.8, 0.001 molar aqueous ammonium bicarbonate and acetonitrile)?
Its chromatographic logP is 4.66.

What about the pest or weed control at 500 ppm [2] of the same compound?
The pest or weed control at 500 ppm was ≥ 70%.

For `Cc1cc(C(F)(F)F)nn1CC(=S)N1CCC(c2nc(/C=C/c3ccccc3)cs2)CC1` [Example I-93, 2-[5-Methyl-3-(trifluoromethyl)-1H-pyrazol-1-yl]-1-(4-{4-[(E)-2-phenylethenyl]-1,3-thiazol-2-yl}piperidin-1-yl)ethanethione], which pest or weed control at 100 ppm [3] is on record?
The pest or weed control at 100 ppm was ≥ 70%.

And the chromatographic logP [1, 4]?
Its chromatographic logP is 4.65.

What about the pest or weed control at 500 ppm [2] of the same compound?
Its pest or weed control at 500 ppm is ≥ 70%.

Which results are given for `COc1ccccc1C#Cc1csc(C2CCN(C(=O)Cn3nc(C(F)(F)F)cc3C)CC2)n1` [Example I-103, 1-(4-{4-[(2-Methoxyphenyl)ethynyl]-1,3-thiazol-2-yl}piperidin-1-yl)-2-[5-methyl-3-(trifluoromethyl)-1H-pyrazol-1-yl]ethanone]?
pest or weed control at 100 ppm [3]: ≥ 70%; chromatographic logP [1, 4]: 3.67; pest or weed control at 500 ppm [2]: ≥ 70%
